Read-outs that look alike come from different tables or passages of the source.
How the values were obtained:
[1] = prior art; cited from earlier work
[2] = not told; cited from earlier work
[3] = 6-carboxylfluorescein, rats; pretreatment of the skin with 4% calcium thioglycolate; cited from earlier work
[4] = across human skin; cited from earlier work
[5] = Skin irritation / tolerability; details: thioglycolate esters and amides
[6] = In-vitro demonstration of the reaction: conversion of cystine into cysteine, followed by TLC; details: after 6 hours; room temperature, water pH 7.2, under nitrogen
Protocol: A test was made to check whether the presence of a thioglycolate ester will cause conversion of Cystine into Cysteine: [drawing 1]
In a three necked flask (100 ml), under nitrogen were added 10 ml of water (pH 7.2), 200 mg cystine and 200 mg, of iso-octyl thioglycolate and stirred at room temperature for 24 hours. The reaction was followed by TLC using Silica-Gel precoated plates. As an eluant a mixture of BuOH:H2 O:AcOH in a 10:1:5 ratio respectively was used. The plates were developed by spraying a solution of 5% Ninhydrine in ethanol and heating. […] A control experiment was made under the same conditions but without the Thioglycolate ester. After 20 hours at room temperature no cysteine could be detected.

## OCCS [2-Mercaptoethanol]
[1]
  irritation: very strong irritants

## C[S+](C)[O-] [Dimethyl sulfoxide]
[2]
  concentration needed for significant permeation enhancement: > 70%

## CC(C)=O [acetone]
[1]
  irritation: cause irritation and edema

## O=C(O)CS [calcium thioglycolate]
[3]
  increase of penetration as compared to the control: 9 times

## CCCCCCCCCC[S+](C)[O-] (stereo not shown) [decyl methyl, sulfoxide]
[1]
  toxicological problems: creates toxicological problems
[4]
  penetration of sodium methotrexate: enhances the penetration of sodium methotrexate across human skin

## CCOC(=O)CS [ethyl thioglycolate]
[5]
  irritation: irritants

## CC(C)CCCCCOC(=O)CS [iso-octyl thioglycolate, Iso-octyl thioglycolate]
[6]
  conversion of cystine to cysteine (TLC spot): a spot corresponding to cysteine was formed and this spot grew as a function of time

## COC(=O)CS [methyl thioglycolate]
[5]
  irritation: irritants

## tetralinhydrofurfuryl alcohol
[1]
  irritation: cause irritation and edema

From patent publication US5683713A, “Pharmaceutical compositions for topical application” (priority 1993, dated 1997)
